{
  "source": "patent US20080227797A1",
  "about": "“Pyridopyrimidine Derivatives as Pde4 Inhibitors for the Treatment of Inflammatory and Immune Diseases” (ASTRAZENECA AB, priority 2005, published 2008)",
  "data": [
    {"biological_target": "recombinant Human Phosphodiesterase B2 (PDE4B2) (Homo sapiens, UniProt Q07343)", "sequence (Q07343 1-564 isoform Q07343-2)": "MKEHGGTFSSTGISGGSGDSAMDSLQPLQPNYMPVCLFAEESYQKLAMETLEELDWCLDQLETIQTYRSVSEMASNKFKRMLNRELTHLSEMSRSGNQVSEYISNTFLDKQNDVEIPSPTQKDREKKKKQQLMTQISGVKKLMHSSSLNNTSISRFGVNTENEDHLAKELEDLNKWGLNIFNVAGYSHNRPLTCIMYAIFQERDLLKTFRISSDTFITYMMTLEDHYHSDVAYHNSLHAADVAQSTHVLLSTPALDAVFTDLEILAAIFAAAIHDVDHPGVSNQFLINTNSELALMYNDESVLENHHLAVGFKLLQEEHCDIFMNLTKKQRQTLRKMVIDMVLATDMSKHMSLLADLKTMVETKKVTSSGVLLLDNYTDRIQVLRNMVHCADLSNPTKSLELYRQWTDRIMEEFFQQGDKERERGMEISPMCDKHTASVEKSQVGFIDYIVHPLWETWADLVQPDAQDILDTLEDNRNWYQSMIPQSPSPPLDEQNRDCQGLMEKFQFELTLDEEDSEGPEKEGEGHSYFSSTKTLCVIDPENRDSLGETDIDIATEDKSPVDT", "test": "Human Phosphodiesterase B2 Alpha Screen Assay", "format": "biochemical", "details": "cAMP substrate, Alpha Screen cAMP kit, 60 minutes at room temperature", "how_it_was_run": "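Recombinant human PDE4B2 preincubated 15 min at RT with compound in 50 mM Tris pH 7.5, 8.3 mM MgCl2, 1.7 mM EGTA, 0.01% Brij35, then reacted with cAMP for 60 min at RT. Stopped with EDTA; AlphaScreen beads with biotinylated cAMP incubated 5 h in the dark before reading. IC50 from curve fitting.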", "units": {"IC50": "nM"}, "values": [
      {"smiles": "COc1cccc(O)c1C(=O)N[C@H]1CC[C@@H](n2c(=O)c3cc(F)cnc3n(-c3ccc(F)c(F)c3)c2=O)CC1", "note": "[Example 16, N-{cis-4-[1-(3,4-difluorophenyl)-6-fluoro-2,4-dioxo-1,4-dihydropyrido[2,3-d]pyrimidin-3(2H)-yl]cyclohexyl}-2-hydroxy-6-methoxybenzamide]", "IC50": 2.1},
      {"smiles": "Cc1ccc(C(=O)N[C@H]2CC[C@@H](n3c(=O)c4cc(F)cnc4n(-c4ccc(F)c(F)c4)c3=O)CC2)c(O)c1", "note": "[Example 9, N-{cis-4-[1-(3,4-difluorophenyl)-6-fluoro-2,4-dioxo-1,4-dihydropyrido[2,3-d]pyrimidin-3(2H)-yl]cyclohexyl}-2-hydroxy-4-methylbenzamide]", "IC50": 1.3},
      {"smiles": "COC(=O)c1cccc(C(=O)N[C@H]2CC[C@@H](n3c(=O)c4cc(F)cnc4n(-c4ccc(F)c(F)c4)c3=O)CC2)c1", "note": "[Example 29, methyl 3-[({cis-4-[1-(3,4-difluorophenyl)-6-fluoro-2,4-dioxo-1,4-dihydropyrido[2,3-d]pyrimidin-3(2H)-yl]cyclohexyl}amino)carbonyl]benzoate]", "IC50": 1.2},
      {"smiles": "O=C(N[C@H]1CC[C@@H](n2c(=O)c3cc(F)cnc3n(-c3ccc(F)c(F)c3)c2=O)CC1)c1csnn1", "note": "[Example 93, N-{cis-4-[1-(3,4-difluorophenyl)-6-fluoro-2,4-dioxo-1,4-dihydropyrido[2,3-d]pyrimidin-3(2H)-yl]cyclohexyl}-1,2,3-thiadiazole-4-carboxamide]", "IC50": 11.7},
      {"smiles": "COC(=O)c1cccc(-n2c(=O)n([C@H]3CC[C@@H](NC(=O)CC(C)C)CC3)c(=O)c3cc(F)cnc32)c1", "note": "[Example 63, methyl 3-[6-fluoro-3-{cis-4-[(3-methylbutanoyl)amino]cyclohexyl}-2,4-dioxo-3,4-dihydropyrido[2,3-d]pyrimidin-1(2H)-yl]benzoate]", "IC50": 5.7},
      {"smiles": "O=C(N[C@H]1CC[C@@H](n2c(=O)c3cc(F)cnc3n(-c3ccc(F)c(F)c3)c2=O)CC1)C1CC1", "note": "[Example 48, N-{cis-4-[1-(3,4-Difluorophenyl)-6-fluoro-2,4-dioxo-1,4-dihydropyrido[2,3-d]pyrimidin-3(2H)-yl]cyclohexyl}cyclopropanecarboxamide]", "IC50": 8.8},
      {"smiles": "COC(=O)c1ccc(C(=O)N[C@H]2CC[C@@H](n3c(=O)c4cc(F)cnc4n(-c4ccc(F)c(F)c4)c3=O)CC2)cc1", "note": "[Example 25, methyl 4-[({cis-4-[1-(3,4-difluorophenyl)-6-fluoro-2,4-dioxo-1,4-dihydropyrido[2,3-d]pyrimidin-3(2H)-yl]cyclohexyl}amino)carbonyl]benzoate]", "IC50": 1.9},
      {"smiles": "COCC(=O)N[C@H]1CC[C@@H](n2c(=O)c3cc(F)cnc3n(-c3cccc(C(=O)OC)c3)c2=O)CC1", "note": "[Example 65, methyl 3-[6-fluoro-3-{cis-4-[(methoxyacetyl)amino]cyclohexyl}-2,4-dioxo-3,4-dihydropyrido[2,3-d]pyrimidin-1(2H)-yl]benzoate]", "IC50": 11.1},
      {"smiles": "CSc1cccc(-n2c(=O)n([C@H]3CC[C@@H](NC(=O)c4cc(CO)ccc4O)CC3)c(=O)c3cc(F)cnc32)c1", "note": "[Example 36, N-{cis-4-[6-fluoro-1-[3-(methylthio)phenyl]-2,4-dioxo-1,4-dihydropyrido[2,3-d]pyrimidin-3(2H)-yl]cyclohexyl}-2-hydroxy-5-(hydroxymethyl)benzamide]", "IC50": 2.9},
      {"smiles": "CSc1cccc(-n2c(=O)n([C@H]3CC[C@@H](NS(=O)(=O)c4ccccc4)CC3)c(=O)c3cc(F)cnc32)c1", "note": "[Example 60, N-{cis-4-[6-fluoro-1-[3-(methylthio)phenyl]-2,4-dioxo-1,4-dihydropyrido[2,3-d]pyrimidin-3(2H)-yl]cyclohexyl}benzenesulfonamide]", "IC50": 32.4},
      {"smiles": "C#Cc1ccc(C(=O)N[C@H]2CC[C@@H](n3c(=O)c4cc(F)cnc4n(-c4ccc(F)c(F)c4)c3=O)CC2)cc1", "note": "[Example 102, N-{cis-4-[1-(3,4-difluorophenyl)-6-fluoro-2,4-dioxo-1,4-dihydropyrido[2,3-d]pyrimidin-3(2H)-yl]cyclohexyl}-4-ethynylbenzamide]", "IC50": 1},
      {"smiles": "O=C(CO)N[C@H]1CC[C@@H](n2c(=O)c3cc(F)cnc3n(-c3ccc(F)c(F)c3)c2=O)CC1", "note": "[Example 3, N-{cis-4-[1-(3,4-difluorophenyl)-6-fluoro-2,4-dioxo-1,4-dihydropyrido[2,3-d]pyrimidin-3(2H)-yl]cyclohexyl}-2-hydroxyacetamide]", "IC50": 16.3},
      {"smiles": "O=C(N[C@H]1CC[C@@H](n2c(=O)c3cc(F)cnc3n(-c3ccc(F)c(F)c3)c2=O)CC1)c1ccc2ncsc2c1", "note": "[Example 91, N-{cis-4-[1-(3,4-difluorophenyl)-6-fluoro-2,4-dioxo-1,4-dihydropyrido[2,3-d]pyrimidin-3(2H)-yl]cyclohexyl}-1,3-benzothiazole-6-carboxamide]", "IC50": 2.09},
      {"smiles": "O=C(N[C@H]1CC[C@@H](n2c(=O)c3cc(F)cnc3n(-c3ccc(F)c(F)c3)c2=O)CC1)c1c(O)cccc1F", "note": "[Example 30, N-{cis-4-[1-(3,4-difluorophenyl)-6-fluoro-2,4-dioxo-1,4-dihydropyrido[2,3-d]pyrimidin-3(2H)-yl]cyclohexyl}-2-fluoro-6-hydroxybenzamide]", "IC50": 1.1},
      {"smiles": "CSc1cccc(-n2c(=O)n([C@H]3CC[C@@H](NC(=O)C4CC4)CC3)c(=O)c3cc(F)cnc32)c1", "note": "[Example 55, N-{cis-4-[6-fluoro-1-[3-(methylthio)phenyl]-2,4-dioxo-1,4-dihydropyrido[2,3-d]pyrimidin-3(2H)-yl]cyclohexyl}cyclopropanecarboxamide]", "IC50": 2.6},
      {"smiles": "O=C(N[C@H]1CC[C@@H](n2c(=O)c3cc(F)cnc3n(-c3ccc(F)c(F)c3)c2=O)CC1)c1cc2cccnc2s1", "note": "[Example 105, N-{cis-4-[1-(3,4-difluorophenyl)-6-fluoro-2,4-dioxo-1,4-dihydropyrido[2,3-d]pyrimidin-3(2H)-yl]cyclohexyl}thieno[2,3-b]pyridine-2-carboxamide]", "IC50": 6.03},
      {"smiles": "CN1CCCC(C(=O)N[C@H]2CC[C@@H](n3c(=O)c4cc(F)cnc4n(-c4ccc(F)c(F)c4)c3=O)CC2)C1", "note": "(relative stereo) [Example 99, N-{cis-4-[1-(3,4-difluorophenyl)-6-fluoro-2,4-dioxo-1,4-dihydropyrido[2,3-d]pyrimidin-3(2H)-yl]cyclohexyl}-1-methylpiperidine-3-carboxamide]", "IC50": 6.01},
      {"smiles": "CSc1cccc(-n2c(=O)n([C@H]3CC[C@@H](NC(=O)c4ccccc4)CC3)c(=O)c3cc(F)cnc32)c1", "note": "[Example 57, N-{cis-4-[6-fluoro-1-[3-(methylthio)phenyl]-2,4-dioxo-1,4-dihydropyrido[2,3-d]pyrimidin-3(2H)-yl]cyclohexyl}benzamide]", "IC50": 4.2},
      {"smiles": "O=C(N[C@H]1CC[C@@H](n2c(=O)c3cc(F)cnc3n(-c3ccc(F)c(F)c3)c2=O)CC1)c1ccc(F)cc1O", "note": "[Example 51, N-{cis-4-[1-(3,4-difluorophenyl)-6-fluoro-2,4-dioxo-1,4-dihydropyrido[2,3-d]pyrimidin-3(2H)-yl]cyclohexyl}-4-fluoro-2-hydroxybenzamide]", "IC50": 5.2},
      {"smiles": "COc1ccc(C(=O)N[C@H]2CC[C@@H](n3c(=O)c4cc(F)cnc4n(-c4ccc(F)c(F)c4)c3=O)CC2)cc1O", "note": "[Example 26, N-{cis-4-[1-(3,4-difluorophenyl)-6-fluoro-2,4-dioxo-1,4-dihydropyrido[2,3-d]pyrimidin-3(2H)-yl]cyclohexyl}-3-hydroxy-4-methoxybenzamide]", "IC50": 1}
    ]}
  ]
}
